Laboratory results as given in patent publication US20180271097A1, “HETEROCYCLIC TRIFLUOROALKENYL COMPOUNDS HAVING A NEMATOCIDAL ACTIVITY, THEIR AGRONOMIC COMPOSITIONS AND USE THEREOF” (ISAGRO S.P.A., priority 2015, published 2018).

Assays:
[1] = tested on: tomatoes; experiment: Phytotoxicity on tomatoes, application with already cultivating crop; assay type: in vivo, tomato; conditions: zero = no symptoms, 10 = plant destroyed
Method: The product was evaluated considering the possible phytotoxic effects that can jeopardize the development of the plant (a zero-ten scale was used wherein: zero=no symptoms, 10=plant destroyed) and the effectiveness with respect to nematodes. Table 6 indicates the results relating to phytotoxicity on tomatoes applying compounds 1, 2, 6, 9, 71, 75, 76 and CR1 with already cultivating crop: […]

[2] = tested on: Meloidogyne spp.; experiment: Nematocidal activity against Meloidogyne spp., application at the moment of transplantation (tomato in pots); assay type: in vivo; conditions: tomatoes, 4,000 g/hectare, 1 treatment at the moment of transplantation; for Root development: 60 days after transplantation, 100% = healthy root; for Gall index (scale 0-10) / Weight of plant: survey 60 days after transplantation
Method: (§1) The tests, aimed at testing the nematocidal activity of the product under consideration, were carried out using inocula taken from a breeding of Meloidogyne spp. maintained on tomato and tobacco plants in pots and grown in a greenhouse.
(§2) In order to perform the experiments, portions of roots having a large number of galls, and ground, in which larvae are present, starting from the second stage of age, were collected from the infested pots.
(§3) New pots having a diameter of 15 cm were half-filled with sterile earth. The portions of infested roots, previously cleaned, were positioned on the same in order to correctly evaluate the degree of infestation and ensure that each pot contained the same nematic charge. 200-300 g of infested earth were then added and subsequently covered with a thin layer of sterile earth.
(§4) The treatment was effected by pouring, onto the surface of the ground, 100 ml of solution in which the product to be tested was dissolved.
(§5) Tomato seedlings at a stage of two-three true leaves were transplanted into the pots thus prepared. Different tomato cultivars were adopted, having a different sensitivity to the parasite and with different growth rates. In particular, an ornamental variety (cv Microtom) was used for evaluating the final production, whose seedlings have reduced dimensions and are capable of reaching maturity of the fruit in pots and under greenhouse conditions, in about two months.
(§6) The capacity of limiting the parasite was detected, at a distance of 30 and 60 days after transplanting, considering the development of the root system (wherein 100% is the development reached by the comparative healthy root) and the presence of galls on the roots. The presence of galls in the roots was estimated using the infestation scale proposed by Bridge and Page, in which the value zero corresponds to 0% of affected root and the value of 10 corresponds to 100% of infested root.
Determination of the Nematocidal Activity Against Meloidogyne Spp. (Application at the Moment of Transplantation)
The same experimental procedure as Example 4 was adopted for evaluating the nematocidal activity of the products under examination, except for the fact that this evaluation was effected by applying the product at the moment of transplantation.
Tables 3 and 4 indicate the results relating to the effectiveness of compounds 9, 10, 71, 75, 76 and the reference compound CR1 on tomatoes at a dose of 4,000 g/hectare effecting the survey 60 days after transplantation.

[3] = tested on: Meloidogyne spp.; experiment: Nematocidal activity against Meloidogyne spp., application with already cultivating crop (tomato in pots); assay type: in vivo; conditions: tomatoes, 4,000 g/hectare, repeated treatment after transplantation (already cultivating crop); for Root development: 60 days after transplantation, 100% = healthy root; for Gall index (scale 0-10) / Weight of plant: survey 60 days after transplantation
Method: as §1, §2, §3, §4, §5, §6
Determination of the Nematocidal Activity Against Meloidogyne Spp. (Application with Already Cultivating Crop)
The same experimental procedure as Example 4 was adopted for evaluating the nematocidal activity of the products under examination, except for the fact that this evaluation was effected by applying the product during the development of the seedlings (according to what is indicated in the label of the commercial reference product VYDATE® (Oxamil)).
Table 5 indicates the results relating to the effectiveness of compounds 1, 2, 6 and the compound CR1 on tomatoes at a dose of 4,000 g/hectare effecting the survey 60 days after transplantation.

[4] = tested on: Meloidogyne spp.; experiment: Nematocidal activity against Meloidogyne spp., application 7 days before transplantation (tomato in pots); assay type: in vivo; conditions: tomatoes, 4,000 g/hectare, treatment 7 days before transplantation; for Root development: 60 days after transplantation, 100% = development of comparative healthy root; for Height of plant (cm) / Gall index (scale 0-10): assessment 60 days after transplantation; for Gall index (scale 0-10): Bridge and Page scale, 0 = 0% affected root, 10 = 100% infested root
Method: Determination of the Nematocidal Activity Against Meloidogyne Spp. (Application 7 Days Before Transplantation)
as §1, §2, §3, §4, §5
The evaluation of the product under consideration was effected by treating the pots 7 days before transplantation (according to what is indicated in the label of the commercial reference product NIMITZ® (Fluensulfone)).
The product was evaluated considering the possible phytotoxic effects that can jeopardize the development of the plant (a zero-ten scale was used wherein: zero=no symptoms, 10=plant destroyed) and the effectiveness with respect to nematodes.
as §6
Table 2 indicates the results relating to the effectiveness of Compounds 1, 2 and 22 and Compounds CR1, CR2, CR3 on tomatoes at a dosage of 4,000 g/hectare, effecting the assessment 60 days after the transplantation.

Row | SMILES | Phytotoxicity (scale 0-10) [1] [scale 0-10] | Root development ([2]; Table 4 test) [%] | Gall index (scale 0-10) ([2]; Table 4 test) | Weight of plant ([2]; Table 4 test) [g] | Root development ([2]; Table 3 test) [%] | Gall index (scale 0-10) ([2]; Table 3 test) | Weight of plant ([2]; Table 3 test) [g] | Root development [3] [%] | Gall index (scale 0-10) [3] [scale 0-10] | Weight of plant [3] [g] | Root development [4] [%] | Height of plant (cm) [4] [cm] | Gall index (scale 0-10) [4] [scale 0-10]
1 | CC1(C)CC(S(=O)(=O)CCC(F)=C(F)F)=NO1 [Nr 76] | 0 | 100 | 1.5 | 51 | – | – | – | – | – | – | – | – | –
2 | O=S(=O)(CCC(F)=C(F)F)c1ncc(Cl)s1 [CR1, 5-chloro-2-(3,4,4-trifluoro-3-butenylsulfonyl)-thiazole, reference compound] | 3 | 80 | 1.0 | 50 | 60 | 1.5 | 62 | 32 | 1.5 | 25 | 70 | 71 | 2.0
3 | CC1(C)CC([S+]([O-])CCC(F)=C(F)F)=NO1 (stereo not shown) [Nr 75] | 0 | 100 | 1.0 | 50 | – | – | – | – | – | – | – | – | –
4 | Cc1nnc(S(=O)(=O)CCC=C(F)F)s1 [CR3, 2-(4,4-difluoro-3-butenylsulfonyl)-5-methyl-1,3,4-thiadiazole, reference compound] | – | – | – | – | – | – | – | – | – | – | 75 | 70 | 1.5
5 | O=S(=O)(CCC(F)=C(F)F)c1nnc(Cl)s1 [Nr 22, 2-(3,4,4-trifluoro-3-butenylsulfonyl)-5-chloro-1,3,4-thiadiazole] | – | – | – | – | – | – | – | – | – | – | 90 | 73 | 1.5
6 | CC(C)Cc1nnc([S+]([O-])CCC(F)=C(F)F)s1 (stereo not shown) [Nr 9] | 0 | – | – | – | 70 | 2.0 | 116 | – | – | – | – | – | –
7 | Cc1nnc([S+]([O-])CCC(F)=C(F)F)s1 (stereo not shown) [Nr 1, 2-(3,4,4-trifluoro-3-butenylsulfinyl)-5-methyl-1,3,4-thiadiazole] | 0 | – | – | – | – | – | – | 100 | 1.0 | 36 | 95 | 75 | 1.0
8 | CC(C)Cc1nnc(S(=O)(=O)CCC(F)=C(F)F)s1 [Nr 10] | – | – | – | – | 75 | 2.0 | 88 | – | – | – | – | – | –
9 | Cc1nnc(SCCC(F)=C(F)F)s1 [CR2, 2-(3,4,4-trifluoro-3-butenylthio)-5-methyl-1,3,4-thiadiazole, reference compound] | – | – | – | – | – | – | – | – | – | – | 70 | 60 | 2.0
10 | CC(C)c1nnc(S(=O)(=O)CCC(F)=C(F)F)s1 [Nr 6] | 0 | – | – | – | – | – | – | 95 | 2.0 | 40 | – | – | –
11 | Cc1nnc(S(=O)(=O)CCC(F)=C(F)F)s1 [Nr 2, 2-(3,4,4-trifluoro-3-butenylsulfonyl)-5-methyl-1,3,4-thiadiazole] | 0 | – | – | – | – | – | – | 100 | 0.0 | 33 | 95 | 76 | 1.0
